The values below come from US9452986B2, “6-heteroaryloxy- or 6-aryloxy-quinoline-2-carboxamides and method of use” (AbbVie Inc., priority 2014, dated 2016).

Where only a bound is given, the exact number is not on record here.

What is called IC50 is the concentration at which inhibition is half-maximal.

recombinant human Nav1.7, sequence (Q15858 whole entry): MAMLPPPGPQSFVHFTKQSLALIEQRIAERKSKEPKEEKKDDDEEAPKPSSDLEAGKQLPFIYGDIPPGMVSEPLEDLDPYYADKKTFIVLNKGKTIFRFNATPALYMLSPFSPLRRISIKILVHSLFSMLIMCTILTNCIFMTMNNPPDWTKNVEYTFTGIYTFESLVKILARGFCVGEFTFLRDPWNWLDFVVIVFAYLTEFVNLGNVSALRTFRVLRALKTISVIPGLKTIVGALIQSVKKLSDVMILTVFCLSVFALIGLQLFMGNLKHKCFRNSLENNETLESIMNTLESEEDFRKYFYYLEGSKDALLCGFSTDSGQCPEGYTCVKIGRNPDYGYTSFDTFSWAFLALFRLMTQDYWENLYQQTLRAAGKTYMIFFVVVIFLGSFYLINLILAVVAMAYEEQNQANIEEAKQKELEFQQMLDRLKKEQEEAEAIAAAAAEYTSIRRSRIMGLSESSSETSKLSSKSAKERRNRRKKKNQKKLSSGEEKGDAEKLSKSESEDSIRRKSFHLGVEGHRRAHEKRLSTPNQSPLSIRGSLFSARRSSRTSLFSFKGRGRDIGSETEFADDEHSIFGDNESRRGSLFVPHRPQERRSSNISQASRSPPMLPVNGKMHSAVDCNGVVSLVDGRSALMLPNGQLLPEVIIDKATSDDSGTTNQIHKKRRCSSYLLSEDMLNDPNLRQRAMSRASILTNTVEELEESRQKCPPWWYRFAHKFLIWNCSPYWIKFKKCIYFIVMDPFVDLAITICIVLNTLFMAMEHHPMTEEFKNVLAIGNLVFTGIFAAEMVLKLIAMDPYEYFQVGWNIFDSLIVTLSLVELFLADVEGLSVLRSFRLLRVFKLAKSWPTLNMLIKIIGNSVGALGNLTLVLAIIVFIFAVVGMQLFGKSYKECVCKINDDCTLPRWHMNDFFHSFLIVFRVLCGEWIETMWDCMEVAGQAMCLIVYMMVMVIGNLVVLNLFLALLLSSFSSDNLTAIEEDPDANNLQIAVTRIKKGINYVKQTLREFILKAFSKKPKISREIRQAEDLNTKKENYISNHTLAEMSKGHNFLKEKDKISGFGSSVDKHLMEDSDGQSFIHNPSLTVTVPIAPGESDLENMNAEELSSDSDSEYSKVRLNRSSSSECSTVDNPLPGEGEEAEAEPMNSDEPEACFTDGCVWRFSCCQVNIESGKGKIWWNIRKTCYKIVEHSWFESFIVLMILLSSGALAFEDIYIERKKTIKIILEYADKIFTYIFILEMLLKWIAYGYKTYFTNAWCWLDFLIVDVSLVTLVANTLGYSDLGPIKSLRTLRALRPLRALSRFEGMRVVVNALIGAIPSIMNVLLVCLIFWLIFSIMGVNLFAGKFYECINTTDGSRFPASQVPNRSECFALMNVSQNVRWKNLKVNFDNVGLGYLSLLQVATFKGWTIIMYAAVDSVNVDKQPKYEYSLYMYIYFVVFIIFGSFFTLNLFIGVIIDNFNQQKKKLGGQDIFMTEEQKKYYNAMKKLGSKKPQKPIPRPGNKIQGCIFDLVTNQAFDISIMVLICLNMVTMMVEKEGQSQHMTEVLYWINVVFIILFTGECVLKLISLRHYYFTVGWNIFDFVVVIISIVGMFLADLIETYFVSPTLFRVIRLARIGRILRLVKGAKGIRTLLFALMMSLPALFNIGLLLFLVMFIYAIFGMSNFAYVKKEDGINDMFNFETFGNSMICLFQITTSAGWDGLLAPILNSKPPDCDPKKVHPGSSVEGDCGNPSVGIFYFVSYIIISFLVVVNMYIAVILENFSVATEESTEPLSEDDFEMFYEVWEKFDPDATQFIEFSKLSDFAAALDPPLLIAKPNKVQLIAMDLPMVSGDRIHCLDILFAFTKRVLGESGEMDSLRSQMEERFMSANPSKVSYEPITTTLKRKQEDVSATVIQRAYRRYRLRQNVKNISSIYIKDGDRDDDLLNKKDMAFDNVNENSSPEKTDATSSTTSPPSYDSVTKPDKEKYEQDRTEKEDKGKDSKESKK

The target of one assay is recombinant human Nav1.7 (Homo sapiens (Human), UniProt Q15858). The assay can be described thus: FRET-based membrane potential assay, recombinant human sodium channel Nav1.7. It counts as cell-based. Conditions: HEK293 cells stably expressing recombinant human Nav1.7; veratridine + scorpion venom depolarization; read-out: FRET-Membrane Potential Nav1.7 IC50. The gist of the method:
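Channel activation used veratridine at its EC80, set by a dilution curve each experiment, together with Leiurus scorpion venom, added 3 min after compound. Membrane-potential ratio signals from FLIPR Tetra in HEPES-buffered HBSS were fitted to a four-parameter Hill equation for percent inhibition and IC50.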
Take `O=C(NC1CCC(F)(F)CC1)c1ccc2cc(Oc3ccc(C(F)(F)F)nc3)ccc2n1` [Example 511, N-(4,4-difluorocyclohexyl)-6-{[6-(trifluoromethyl)pyridin-3-yl]oxy}quinoline-2-carboxamide]: the IC50 came out at 1980 nM.

For `COCCNC(=O)CN(C)C(=O)c1ccc2cc(Oc3ccc(C(F)(F)F)nc3)ccc2n1` [Example 514, N-{2-[(2-methoxyethyl)amino]-2-oxoethyl}-N-methyl-6-{[6-(trifluoromethyl)pyridin-3-yl]oxy}quinoline-2-carboxamide], the concentration for half-maximal inhibition (IC50) is 12900 nM. Take `O=C(NCCC(=O)N1CCOCC1)c1ccc2cc(Oc3ccc(C(F)(F)F)nc3)ccc2n1` [Example 515, N-[3-(morpholin-4-yl)-3-oxopropyl]-6-{[6-(trifluoromethyl)pyridin-3-yl]oxy}quinoline-2-carboxamide]: the IC50 came to 4250 nM. Still for that read-out and setting: in the case of `O=C(NCCC(=O)N1CCCC1)c1ccc2cc(Oc3ccc(C(F)(F)F)nc3)ccc2n1` [Example 516, N-[3-oxo-3-(pyrrolidin-1-yl)propyl]-6-{[6-(trifluoromethyl)pyridin-3-yl]oxy}quinoline-2-carboxamide] it was 2000 nM; in that of `CCN(CC)C(=O)CNC(=O)c1ccc2cc(Oc3ccc(C(F)(F)F)nc3)ccc2n1` [Example 517, N-[2-(diethylamino)-2-oxoethyl]-6-{[6-(trifluoromethyl)pyridin-3-yl]oxy}quinoline-2-carboxamide], 370 nM; in that of `O=C(NCC(=O)N1CCCCC1)c1ccc2cc(Oc3ccc(C(F)(F)F)nc3)ccc2n1` [Example 518, N-[2-oxo-2-(piperidin-1-yl)ethyl]-6-{[6-(trifluoromethyl)pyridin-3-yl]oxy}quinoline-2-carboxamide], 998 nM. Still for that read-out and setting: as for `CN1CC(NC(=O)c2ccc3cc(Oc4ccc(C(F)(F)F)nc4)ccc3n2)CC1=O` (stereo not shown) [Example 519, N-(1-methyl-5-oxopyrrolidin-3-yl)-6-{[6-(trifluoromethyl)pyridin-3-yl]oxy}quinoline-2-carboxamide], the figure is 1160 nM; as for `O=C(NCCC(=O)N1CCCCC1)c1ccc2cc(Oc3ccc(C(F)(F)F)nc3)ccc2n1` [Example 520, N-[3-oxo-3-(piperidin-1-yl)propyl]-6-{[6-(trifluoromethyl)pyridin-3-yl]oxy}quinoline-2-carboxamide], 945 nM. With `CCN1CC(NC(=O)c2ccc3cc(Oc4ccc(C(F)(F)F)nc4)ccc3n2)CC1=O` (stereo not shown) [Example 523, N-(1-ethyl-5-oxopyrrolidin-3-yl)-6-{[6-(trifluoromethyl)pyridin-3-yl]oxy}quinoline-2-carboxamide], the concentration for half-maximal inhibition (IC50) was 356 nM. On to `CCN(CC)C(=O)CCNC(=O)c1ccc2cc(Oc3ccc(C(F)(F)F)nc3)ccc2n1` [Example 524, N-[3-(diethylamino)-3-oxopropyl]-6-{[6-(trifluoromethyl)pyridin-3-yl]oxy}quinoline-2-carboxamide], for which the half-inhibitory concentration (IC50) is 1080 nM.

For `CC(C)NC(=O)CN(C)C(=O)c1ccc2cc(Oc3ccc(C(F)(F)F)nc3)ccc2n1` [Example 525, N-[2-(isopropylamino)-2-oxoethyl]-N-methyl-6-{[6-(trifluoromethyl)pyridin-3-yl]oxy}quinoline-2-carboxamide], the IC50 was determined as 6650 nM.

In the case of `O=C(c1ccc2cc(Oc3ccc(C(F)(F)F)nc3)ccc2n1)N1CCC(N2CCOCC2)CC1` [Example 526, [4-(morpholin-4-yl)piperidin-1-yl](6-{[6-(trifluoromethyl)pyridin-3-yl]oxy}quinolin-2-yl)methanone], the half-inhibitory concentration (IC50) came to 3090 nM. Take `N[C@@H]1[C@H]2CN(C(=O)c3ccc4cc(Oc5ccc(C(F)(F)F)nc5)ccc4n3)C[C@@H]12` [Example 528, meso-[(1R,5S,6s)-6-amino-3-azabicyclo[3.1.0]hex-3-yl](6-{[6-(trifluoromethyl)pyridin-3-yl]oxy}quinolin-2-yl)methanone]: the IC50 stood at 2920 nM. In the case of `O=C(N[C@@H]1CCOC1=O)c1ccc2cc(Oc3ccc(C(F)(F)F)cn3)ccc2n1` [Example 530, N-[(3R)-2-oxotetrahydrofuran-3-yl]-6-{[5-(trifluoromethyl)pyridin-2-yl]oxy}quinoline-2-carboxamide], the IC50 stood at 911 nM.

Take `Cc1nc(CN2CCN(C(=O)c3ccc4cc(Oc5ccc(C(F)(F)F)cn5)ccc4n3)CC2)co1` [Example 531, {4-[(2-methyl-1,3-oxazol-4-yl)methyl]piperazin-1-yl}(6-{[5-(trifluoromethyl)pyridin-2-yl]oxy}quinolin-2-yl)methanone]: the IC50 turned out to be 3570 nM. Same read-out and setting: as for `O=C(c1ccc2cc(Oc3ccc(C(F)(F)F)cn3)ccc2n1)N1CC2(CCOC2)C1` [Example 532, 6-oxa-2-azaspiro[3.4]oct-2-yl(6-{[5-(trifluoromethyl)pyridin-2-yl]oxy}quinolin-2-yl)methanone], the figure is 2770 nM. Turning to `O=C(c1ccc2cc(Oc3ccc(C(F)(F)F)cn3)ccc2n1)N1CC2(CCCOC2)C1` [Example 533, 6-oxa-2-azaspiro[3.5]non-2-yl(6-{[5-(trifluoromethyl)pyridin-2-yl]oxy}quinolin-2-yl)methanone], the IC50 stood at 2400 nM. `CS(=O)(=O)C1CN(C(=O)c2ccc3cc(Oc4ccc(C(F)(F)F)nc4)ccc3n2)C1` [Example 534, [3-(methylsulfonyl)azetidin-1-yl](6-{[6-(trifluoromethyl)pyridin-3-yl]oxy}quinolin-2-yl)methanone]: the half-inhibitory concentration (IC50) is 1970 nM. With `O=C(NC1CCS(=O)(=O)CC1)c1ccc2cc(Oc3ccc(C(F)(F)F)nc3)ccc2n1` [Example 535, N-(1,1-dioxidotetrahydro-2H-thiopyran-4-yl)-6-{[6-(trifluoromethyl)pyridin-3-yl]oxy}quinoline-2-carboxamide], the half-inhibitory concentration (IC50) was over 20000 nM. Turning to `O=C(NC1COC1)c1ccc2cc(Oc3ccc(C(F)(F)F)nc3)ccc2n1` [Example 536, N-(oxetan-3-yl)-6-{[6-(trifluoromethyl)pyridin-3-yl]oxy}quinoline-2-carboxamide], the half-maximal inhibitory concentration (IC50) is 1150 nM.

`O=C(N[C@H]1CS(=O)(=O)C[C@H]1O)c1ccc2cc(Oc3ccc(C(F)(F)F)nc3)ccc2n1` [Example 537, N-[(3R,4S)-4-hydroxy-1,1-dioxidotetrahydrothiophen-3-yl]-6-{[6-(trifluoromethyl)pyridin-3-yl]oxy}quinoline-2-carboxamide]: the IC50 is 2710 nM.

As to `O=C(N[C@@H]1CS(=O)(=O)C[C@H]1O)c1ccc2cc(Oc3ccc(C(F)(F)F)nc3)ccc2n1` [Example 538, N-[(3S,4S)-4-hydroxy-1,1-dioxidotetrahydrothiophen-3-yl]-6-{[6-(trifluoromethyl)pyridin-3-yl]oxy}quinoline-2-carboxamide], the half-inhibitory concentration (IC50) came out at 3160 nM.

Still in this assay, the particulars now being: read-out: FRET-Membrane Potential Nav1.7 IC50.
Regarding `O=C(NCC(=O)N1CCCC1)c1ccc2cc(Oc3ccc(C(F)(F)F)nc3)ccc2n1` [Example 513, N-[2-oxo-2-(pyrrolidin-1-yl)ethyl]-6-{[6-(trifluoromethyl)pyridin-3-yl]oxy}quinoline-2-carboxamide], the half-maximal inhibitory concentration (IC50) amounted to 911 nM. Turning to `CN(CC(=O)NC1CC1)C(=O)c1ccc2cc(Oc3ccc(C(F)(F)F)nc3)ccc2n1` [Example 522, N-[2-(cyclopropylamino)-2-oxoethyl]-N-methyl-6-{[6-(trifluoromethyl)pyridin-3-yl]oxy}quinoline-2-carboxamide], the half-maximal inhibitory concentration (IC50) came to 10700 nM.

For the compound `CNC(=O)c1ccc2cc(Oc3ccc(C(F)(F)F)cn3)ccc2n1` [Example 527, N-methyl-6-{[5-(trifluoromethyl)pyridin-2-yl]oxy}quinoline-2-carboxamide], the 50% inhibitory concentration (IC50) turned out to be 5910 nM.
